# Experimental data from patent US6703414B2, “Device and method for treating restenosis” (Arizona Board of Regents on behalf of the University of …, priority 2001, dated 2004).
# Experiments:
# [1] = target: mTOR (Homo sapiens, UniProt P42345); assay: mTOR inhibition; type: biochemical
# Source text: (§1) Highlighted are the compounds being made for antitumor testing.
# [2] = test system: NCI cell panel (60 cell lines); assay: cytotoxicity NCI cell panel, MTT assay; settings: 48 h, read-out: cytotoxicity NCI cell panel IC50
# Source text: as §1
# [3] = test system: C57BL6 mice; assay: in vivo; settings: for Maximum tolerated dose mg/kg ip qD × 4: MTD = >10% body weight loss, C57BL6 mice; for Ratio liver toxicity/lymphocyte toxicity: liver toxicity relative to wortmannin/decrease in blood lymphocytes relative to wortmannin
# Source text: as §1
# [4] = in vivo; settings: C57BL6, mouse, in vivo, ip
# Source text: as §1
SMILES,IC50 [1],IC50 [2],Maximum tolerated dose mg/kg ip qD × 4 [3],Ratio liver toxicity/lymphocyte toxicity [3],MTD at 4 days [4]
"C=CCN(/C=C1/C(=O)O[C@H](COC)[C@@]2(C)C1=C(O)C(=O)C1=C2[C@H](OC(C)=O)C[C@]2(C)C(=O)CC[C@@H]12)CC=C [DJM2-166, Acetic acid 4-diallylaminomethylene-6-hydroxy-1-α-methoxymethyl-10β,13β-dimethyl-3,7,17-trioxo-1,3,4,7,10,11β,12,13,14α,15,16,17-dodecahydro-2-oxa-cyclopenta[α]phenanthren-11-yl ester]",> 3000 nM,2200 nM,–,–,–
COC[C@H]1OC(=O)/C(=C/SCc2ccccc2)C2=C(O)C(=O)C3=C([C@H](OC(C)=O)C[C@]4(C)C(=O)CC[C@@H]34)[C@]21C [DJM2-170],–,–,9 mg/kg,1.5,–
COC[C@H]1OC(=O)/C(=C/NC(C)C(=O)O)C2=C(O)C(=O)C3=C([C@H](OC(C)=O)C[C@]4(C)C(=O)CC[C@@H]34)[C@]21C (stereo partly drawn) [DJM2-177],–,–,6 mg/kg,0.1,–
"COC[C@H]1OC(=O)c2coc3c2[C@@]1(C)C1=C(C3=O)[C@@H]2CCC(=O)[C@@]2(C)C[C@H]1OC(C)=O [wortmannin, reference compound]",–,–,–,–,2.5 mg/kg
"COC[C@H]1OC(=O)/C(=C/N2CCCC2)C2=C(O)C(=O)C3=C([C@H](OC(C)=O)C[C@]4(C)C(=O)CC[C@@H]34)[C@]21C [DJM2-167, Acetic acid 6-hydroxy-1α-methoxymethyl-10β,13β-dimethyl-3,7,17-trioxo-4-pyrrolidin-1-yl-methylene-1,3,4,7,10,11β,12,13,14α,15,16,17-dodecahydro-2-oxa-cyclopenta[α]phenanthren-11-yl]",> 3000 nM,500 nM,–,–,–
